{"source": "patent US10709687B2", "about": "“FLT3 receptor inhibitor at low dosage for the treatment of neuropathic pain” (INSTITUT NATIONAL DE LA SANTE ET DE LA RECHERCHE MEDICALE …, priority 2016, dated 2020)", "molecules": {"B1": {"name": "FL: cytokine which is a natural ligand of the FLT3 receptor; from ABCYS SA (protein, UniProt P49771 27-235, looked up)", "Fms-related tyrosine kinase 3 …": "TQDCSFQHSPISSDFAVKIRELSDYLLQDYPVTVASNLQDEELCGGLWRLVLAQRWMERLKTVAGSKMQGLLERVNTEIHFVTKCAFQPPPSCLRFVQTNISRLLQETSEQLVALKPWITRQNFSRCLELQCQPDSSTLPPPWSPRPLEATAPTAPQPPLLLLLLLPVGLLLLAAAWCLHWQRTRRRTPRPGEQVPPVPSPQDLLLVEH"}}, "key": {"[1]": {"system": "nerve injury-induced mechanical pain hypersensitivity", "experiment": "Spinal Nerve Ligation (SNL) model, paw pressure test", "format": "in vivo, rat", "settings": "for Human Equivalent Dose (HED) from SNL rat dose: allometric FDA factor for the rat 6.2, human body weight 60 kg; for maximal inhibition on the SNL model in rat (dose): Method 1, no experimental details given", "quoted_text": "Adult Sprague Dawley rats (300-340 gr) (Janvier LABS, Le Genest Saint-Isle, France) were used according to the guidelines of the International Association for the Study of Pain. Rats were housed in cages with a 12/12 hr light/dark cycle and fed food and water ad libitum. Behavioral responsiveness of the rats was tested following ten days of habituation to the testing environment and the observer. Left side L5 spinal nerve was injured as described by Kim and Chung (1992) Pain 50, 355-363. Anesthesia was induced and maintained with isoflurane. A midline incision was made at the L3-S2 level and the dorsal vertebral column from L4 to S2 was exposed. Part of the L6 transverse process was carefully removed with fine rongeurs. The L5 spinal nerve were isolated and tightly ligated distal to the DRG with a 4-0 silk suture. The wound was closed in two layers using absorbable sutures. A similar procedure was performed for the sham surgery, except that spinal nerve was not isolated and not ligated. After surgery, the posture of the sham-operated and SNL rats was closely monitored before they were used in different experiments.\nMechanical hyperalgesia was measured as the threshold to a noxious mechanical stimulus. Nociceptive thresholds (NT) were determined in handled rats by a modification of the Randall-Selitto method (Kayser et al., Brain Res 1990; 508:329-332). Briefly, a constantly increasing pressure is applied to the rat hind paw until vocalization occurs. A Basile analgesimeter (Apelex, Massy, France; stylus tip diameter, 1 mm) was used. A 600-g cut-off value was determined to prevent tissue damage.\nIt was administered by oral gavage at different doses in a volume of 1 ml/kg body weight in a solution of dimethylsulfoxide (DMSO) at 3%. Control animals received an equal volume of DMSO 3%.\nThe data are presented as means±SEM. One-way ANOVA was used to assess individual group comparisons. […] The Newman-Keuls test was used for multiple comparisons between groups."}, "[2]": {"system": "human tumor cells expressing FLT3-ITD (MV4,11)", "settings": "mouse xenograft model; literature references in Table 1; cited from earlier work"}, "[3]": {"settings": "cited from earlier work"}, "[4]": {"system": "human tumor cells expressing FLT3-ITD (MV4,11)", "experiment": "Tumor regression in mouse xenograft model sensitive to FLT3 inhibition", "format": "in vivo", "settings": "allometric FDA factor for the mouse 12.3; 60 kg", "text": "The dose of FLT3 receptor inhibitor that induces tumor regression in animal models can be measured by using a mouse xenograft model, which is sensitive to FLT3 inhibition. Such a model may consist in an athymic immuno-deficient mouse implanted with human tumor cells that express a mutated, spontaneously activated, form of FLT3. […] An example of tumor cells that express FLT3-ITD is the MV4,11 cell line (Lange et al., Blood, 1987, 70:192-199)."}, "FLT3": {"molecular_target": "T1, FLT3 (Mus musculus, UniProt Q00342)", "T1 construct": "Primary neuronal cultures were established from lumbar (L4 to L6) dorsal root ganglia (DRG) of adult mice; endogenous in cells; host or cells: primary DRG neurons from adult mice", "T1 sequence (Q00342 28-1000)": "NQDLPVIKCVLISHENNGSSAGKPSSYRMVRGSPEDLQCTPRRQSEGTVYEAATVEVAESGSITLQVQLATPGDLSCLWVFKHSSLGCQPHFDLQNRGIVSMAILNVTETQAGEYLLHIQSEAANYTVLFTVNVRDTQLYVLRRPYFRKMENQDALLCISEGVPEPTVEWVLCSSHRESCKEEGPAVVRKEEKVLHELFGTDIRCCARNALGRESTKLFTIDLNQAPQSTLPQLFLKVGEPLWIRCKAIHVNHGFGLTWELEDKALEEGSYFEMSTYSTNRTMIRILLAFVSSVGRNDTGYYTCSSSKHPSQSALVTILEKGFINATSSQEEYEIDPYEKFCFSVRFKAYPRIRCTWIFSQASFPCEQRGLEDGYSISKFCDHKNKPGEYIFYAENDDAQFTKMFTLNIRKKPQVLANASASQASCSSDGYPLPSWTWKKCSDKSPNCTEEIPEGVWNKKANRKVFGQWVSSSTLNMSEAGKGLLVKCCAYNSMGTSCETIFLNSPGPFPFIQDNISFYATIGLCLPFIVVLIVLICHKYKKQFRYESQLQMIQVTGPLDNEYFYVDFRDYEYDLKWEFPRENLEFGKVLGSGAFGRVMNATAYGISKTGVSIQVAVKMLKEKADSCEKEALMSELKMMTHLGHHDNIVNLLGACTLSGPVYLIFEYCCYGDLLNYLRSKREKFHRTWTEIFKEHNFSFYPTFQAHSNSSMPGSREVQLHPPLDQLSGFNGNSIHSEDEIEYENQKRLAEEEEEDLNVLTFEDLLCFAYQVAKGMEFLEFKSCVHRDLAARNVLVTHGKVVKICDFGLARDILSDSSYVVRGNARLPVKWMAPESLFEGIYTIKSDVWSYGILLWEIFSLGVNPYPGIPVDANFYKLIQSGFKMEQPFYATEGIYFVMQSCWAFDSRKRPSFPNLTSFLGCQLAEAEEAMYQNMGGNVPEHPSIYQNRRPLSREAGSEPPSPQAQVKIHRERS", "experiment": "FL potentiation of capsaicin-induced [Ca2+]i response in DRG neurons primary culture", "format": "cell-based, mice", "settings": "FL 0.56 nM, capsaicin 0.5 μM", "experimental": "Primary neuronal cultures were established from lumbar (L4 to L6) dorsal root ganglia (DRG) of adult mice as previously described (Boudes et al, J. Neurosci. 29, 46, 10060-10068). Ganglia were treated twice with collagenase A (1 mg/ml, Roche Diagnostic, France) for 45 minutes (37° C.) and then with trypsin-EDTA (0.25%, Sigma, St Quentin Fallavier, France) for 30 minutes. They were mechanically dissociated by passing 8 to 10 times through the tip of a fire-polished Pasteur pipette in neurobasal (Life Technologies, Cergy Pontoise, France) culture medium supplemented with 10% foetal bovine serum and DNase (50 U/ml, Sigma, St Quentin Fallavier, France). Isolated cells were collected by centrifugation and suspended in neurobasal culture medium supplemented with 2% B27 (Life Technologies), 2 mM glutamine, penicillin/streptomycin (20 U/ml, 0.2 mg/ml). […]\nFor intracellular Ca^2+ measurements, DRG neurons were used 18-30 h after plating as described previously. […] A Fura filter cube with 400 long pass dichroic and D510/40m emission band pass was used to collect fluorescence emissions separately for each wavelength. Images were acquired and analyzed with Metafluor software (Molecular Devices). Changes in intracellular calcium concentrations ([Ca^2+]i) were monitored as changes of the ratio of the fura-2-fluorescence intensity recorded at 340 nm and 380 nm excitation wavelengths (ΔF340/380). […]"}, "[5]": {"system": "inflammatory pain (CFA-induced mechanical hypersensitivity)", "experiment": "Complete Freund's Adjuvant (CFA) inflammatory pain model, von Frey mechanical hypersensitivity", "format": "in vivo", "settings": "CFA mice; sunitinib 5 or 20 mg/kg; measured 1 and 2 days after administration", "experimental": "Adult mice (8-10 week-old) (Janvier LABS, Le Genest Saint-Isle, France) were used according to the guidelines of the International Association for the Study of Pain. Mice were housed in cages with a 12/12 hr light/dark cycle and fed food and water ad libitum. Behavioral responsiveness of the animals was tested following ten days of habituation to the testing environment and the observer. Before testing, mice were acclimatized for 60 min in the temperature and light-controlled testing room within a plastic cylinder or on wire mesh.\nA 0.6 g-von Frey filament was used for measuring punctuate hindpaw mechanical hypersensitivity with the dynamic plantar aesthesiometer (Bioseb, France). Sharp withdrawal of the stimulated hindpaw was considered as a positive response. The procedure was applied 10 times and the percentage of positive responses was calculated. Basal positive responses were recorded twice during two, consecutive days.\nInflammatory pain was produced by local injection of Complete Freund's Adjuvant (CFA), which induces a prolonged swelling that becomes maximal at 24 hrs and persists for at least 7 days (Iadarola et al., Pain. 1988; 35:313-26). […] Mechanical hypersensitivity was measured 4 days later. […]"}, "[6]": {"experiment": "Active (recommended or clinically efficacious) dose for treating cancer in patients", "format": "in vivo", "settings": "converted for a human with a body weight of 60 kg; advanced or recurrent head and neck cancers", "source_text": "Active doses for FLT3 receptor inhibitor, according to Method 1 as described above, are the recommended doses, as appearing in the drug label when the product is marketed. […] Such information may be found via various sources well known by the person skilled in the art, such as articles, FDA data publications, labeling of marketed products, Summary of Product Characteristics (SmPC) from the European Medicine Agency (EMA), clinical trial descriptions from the US National Institute of Health (available at www.clinicaltrials.gov) and information on the outer product packaging."}}, "note": "Read-outs that look alike come from different tables or passages of the source.", "data": [{"molecule": "CO[C@@H]1[C@H](N(C)C(=O)c2ccccc2)C[C@H]2O[C@]1(C)n1c3ccccc3c3c4c(c5c6ccccc6n2c5c31)C(=O)NC4", "note": "[Midostaurin]", "values": [{"measurement": "Human Equivalent Dose (HED) from SNL rat dose", "setting": "[1]", "result": 39, "unit": "mg"}, {"measurement": "Human Equivalent Dose (HED) from SNL rat dose", "setting": "[1]; listed as Midostaurine", "result": "HED = 39 mg"}]}, {"molecule": "Nc1ncc(-c2cnn(CCO)c2)c2scc(-c3ccc(NC(=O)Nc4cccc(F)c4)cc3)c12", "note": "[Ilorasertib]", "values": [{"measurement": "minimum inhibiting dose inducing maximal tumor regression", "setting": "[2]", "result": 20, "unit": "mg/kg"}, {"measurement": "Active dose for treating cancer (by cancer type)", "setting": "[3]; once weekly, acute myelogenous leukaemia, myelodysplastic syndrome or chronic myelomonocytic leukaemia", "result": 540, "unit": "mg once weekly"}]}, {"molecule": "CC(C)(C)c1cc(NC(=O)Nc2ccc(-c3cn4c(n3)sc3cc(OCCN5CCOCC5)ccc34)cc2)no1", "note": "[Quizartinib]", "values": [{"measurement": "maximal inhibition on the SNL model in rat (dose)", "setting": "[1]", "result": 0.77, "unit": "mg/kg"}, {"measurement": "Human Equivalent Dose (HED) from SNL rat dose", "setting": "[1]", "result": "HED = 7.5 mg"}, {"measurement": "Human Equivalent Dose (HED) from SNL rat dose", "setting": "[1]; listed as quizartinib", "result": 7.5, "unit": "mg"}]}, {"molecule": "C1=C/COCc2cc(ccc2OCCN2CCCC2)Nc2nccc(n2)-c2cccc(c2)COC/1", "note": "[Pacritinib]", "values": [{"measurement": "Active dose for treating cancer (by cancer type)", "setting": "[3]; once daily", "result": 400}, {"measurement": "Active dose for treating cancer (by cancer type)", "setting": "[3]; twice daily", "result": 200}]}, {"molecule": "CNC(=O)c1cc(Oc2ccc(NC(=O)Nc3ccc(Cl)c(C(F)(F)F)c3)cc2)ccn1", "note": "[Sorafenib]", "values": [{"measurement": "minimum inhibiting dose inducing maximal tumor regression", "setting": "[2]", "result": 10, "unit": "mg/kg"}]}, {"molecule": "CCN(CC)CCNC(=O)c1c(C)[nH]c(/C=C2\\C(=O)Nc3ccc(F)cc32)c1C", "note": "[Sunitinib]", "values": [{"measurement": "Human Equivalent Dose (HED) from mouse tumor regression dose", "setting": "[4]", "result": 98, "unit": "mg"}, {"measurement": "inhibiting dose giving 50% of inhibition (ID50) of SNL-induced mechanical hypersensitivity", "setting": "[1]; SNL rats, oral", "result": 0.015, "unit": "mg/kg"}, {"measurement": "minimal dose for maximal inhibition of pain sensitivity", "setting": "[1]; SNL rats, oral administration, paw pressure 24 hours after administration", "result": 0.075, "unit": "mg/kg"}, {"measurement": "Human Equivalent Dose (HED) from SNL rat dose", "setting": "[1]", "result": "HED = 0.73 mg"}, {"measurement": "Human Equivalent Dose (HED) from SNL rat dose", "setting": "[1]; listed as sunitinib", "result": 0.73, "unit": "mg"}, {"measurement": "IC50", "setting": "FLT3; non-linear regression, read-out: IC50 for inhibition of FL potentiation of the [Ca2+]i peak response to capsaicin", "result": 700, "unit": "pM"}, {"measurement": "mechanical hypersensitivity (percentage of withdrawal after mechanical stimulation)", "setting": "[5]", "result": "inactive"}]}, {"molecule": "COc1cc(Nc2ncc(F)c(Nc3ccc4c(n3)N(COP(=O)(O)O)C(=O)C(C)(C)O4)n2)cc(OC)c1OC", "note": "[Fostamatinib]", "values": [{"measurement": "Active dose for treating cancer (by cancer type)", "setting": "[3]; twice a day", "result": "100-200 twice a day"}]}, {"molecule": "Cc1cc(C)c(/C=C2\\C(=O)Nc3ccccc32)[nH]1", "note": "[Semaxinib]", "values": [{"measurement": "Active dose for treating cancer (by cancer type)", "setting": "[3]; advanced or recurrent head and neck cancers", "result": 145, "unit": "mg/m^2"}, {"measurement": "Active dose for treating cancer (by cancer type)", "setting": "[6]", "result": 235, "unit": "mg"}]}, {"molecule": "CCc1nc(C(N)=O)c(Nc2ccc(N3CCC(N4CCN(C)CC4)CC3)c(OC)c2)nc1NC1CCOCC1", "note": "[Gilteritinib]", "values": [{"measurement": "maximal inhibition on the SNL model in rat (dose)", "setting": "[1]", "result": 2, "unit": "mg/kg"}, {"measurement": "Human Equivalent Dose (HED) from SNL rat dose", "setting": "[1]", "result": "HED = 19.4 mg"}, {"measurement": "Human Equivalent Dose (HED) from SNL rat dose", "setting": "[1]; listed as gilteritinib", "result": 19.4, "unit": "mg"}]}, {"molecule": "B1", "values": [{"measurement": "effect on [Ca2+]i peak response to capsaicin", "setting": "FLT3", "result": "elicited a potentiation"}]}]}
